We go through 89 molecules from a melting point compilation (Tetko et al.; mined from patent text by program, amines drawn as free bases though some values may be those of a salt).

A value given as a limit tells only on which side of the number the result lay.

On to `COC(=O)c1ccc2c(c1)C(=O)c1c-2n(CCCNS(=O)(=O)c2ccccc2)c(=O)c2cc(OC)c(OC)cc12`, for which the melting point is 249 to 251 °C.

As to `N#Cc1cc(Br)ccc1CBr`, the melting point was determined as 81 °C.

`NC(Cc1ccccc1)C(=O)CCC(=O)O` (centres undefined): the melting point lay within 138 to 139 °C.

`CC(C)Oc1nsc(NC(=O)C(C)C)c1C#N` yielded a melting point of 224 °C.

Molecule `CCNC(=O)ON(C(=O)CC)C(=O)NCC` showed a melting point of 104 to 106 °C.

`O=S(=O)(Nc1ncncc1-c1ccc(Cl)cc1)c1ccc(O)cc1`: the melting point is 231 to 232 °C.

`COc1ccc(-c2cc(NC(=O)CCCCN3CCCN(C(C)=O)CC3)n[nH]2)cc1` returned a melting point of 132 to 133 °C.

`Cn1c(C(F)(F)F)cc(=O)n(-c2cc(OCCOC=C(Cl)Cl)c(Cl)cc2F)c1=O` gave a melting point of 97 to 99 °C.

`Cn1ccc(=O)c(-c2cccc(C(F)(F)F)c2)c1` displayed a melting point of 122 to 123 °C.

As to `CC#Cc1cn(C2OC(CO)C(O)C2O)c(=O)[nH]c1=O` (centres undefined), the melting point is 225 to 227 °C.

Take `CCOCCOc1cc(C(O)C#Cc2ccc(C(=O)O)c(O)c2)cc2c1C(C)(C)CCC2(C)C` (centres undefined): the melting point is 120 °C.

`O=C(Cn1c(=O)n(S(=O)(=O)c2ccc(Cl)cc2)c(=O)c2ccc(Cl)cc21)Nc1ccc(C(=O)O)cc1` gave a melting point of 219 to 221 °C.

In turn, `CCOC(=O)c1sc(Cl)nc1-c1ccc(F)cc1` returned a melting point of 113 to 114 °C.

The molecule `O=C(Nc1ccccc1S(=O)(=O)NCC1CCCCC1)N[C@@H](Cc1ccc(NC(=O)c2c(Cl)cncc2Cl)cc1)C(=O)O` returned a melting point of 214 °C.

Turning to `Cc1c(Cl)cc(NC(=O)C(=O)Nc2cc(Cl)c(C)c(Cl)c2O)c(O)c1Cl`, the melting point stood at 330 °C.

`O=C(Nc1ccc(Cl)c(C(F)(F)F)c1)N[C@H]1CC[C@H](Oc2ccc(C(F)(F)F)cn2)CC1` displayed a melting point of 176 to 178 °C.

Regarding `Cc1ccccc1CSc1c(O)cc(-c2ccccc2)oc1=O`, the melting point fell in the range of 176 to 178 °C.

`Cc1ccc(C(=O)c2ccc(CC#N)n2C)cc1` yielded a melting point of 102 to 105 °C.

As for `CCCc1nc2c(N)nc3ccccc3c2n1CCCC(=O)OCC`, the melting point was in the range of 154 to 156 °C.

In turn, `Cn1cc(C2=C(c3csc4ccccc34)C(=O)NC2=O)c2ccccc21` registered a melting point of 238 to 241 °C.

As for `CCCC1=C(C#N)C(c2ccccc2Cl)c2c(n[nH]c2-c2ccc(OC)cc2)N1` (centres undefined), the melting point was 284 °C.

On to `CCCCOC(=O)C(=C1SC=CS1)S(=O)(=O)C(C)C`, for which the melting point is 67 to 69 °C.

In turn, `CC(C)(C)OC(=O)NCC(=O)NCC(=O)Oc1ccc(-c2nn(C3CCCC3)c3c(F)cccc23)cc1` gave a melting point of 103 to 104 °C.

Take `CSCC(C)Nc1nccc(-c2ccnc(Cl)c2)n1` (centres undefined): the melting point lay within 103 to 106 °C.

Take `O=C(O)CC(=O)Nc1cc2ccccc2cc1C(=O)O`: the melting point was 225 to 227 °C.

In turn, `N#Cc1ncn2c(C(F)(F)F)cc(-c3ccccc3Cl)nc12` displayed a melting point of 180 °C.

As for `CNC1=CC=CC(OCCCN2CCC(c3noc4cc(F)ccc34)CC2)(C(C)=O)C1` (centres undefined), the melting point fell in the range of 151 to 153 °C.

`Cn1c(=O)oc(=O)c2ccc(F)cc21`: the melting point was 158 to 160 °C.

`CN(CCO)S(=O)(=O)c1cc([N+](=O)[O-])c(Cl)s1` displayed a melting point of 62 °C.

On to `COC(=O)c1ccc(C(=O)NS(=O)(=O)c2ccc(CCNC(=O)CC(C)C)cc2)cn1`, for which the melting point is 176 to 178 °C.

Take `O=c1[nH]c2ccccc2nc1-c1cc(O)c(O)c([N+](=O)[O-])c1`: the melting point is above 300 °C.

As to `COC(=O)CCc1ccc(Oc2ccc(-c3ccc(C#N)cc3)nn2)cc1`, the melting point was 164 to 167 °C.

In turn, `Clc1ccc(-c2n[nH]c(SC3CCNCC3)c2-c2ccncc2)cc1` came in with a melting point of 211 °C.

For `COCC(OC(C)=O)C1CC(O)C2(C)CCC3C(CCC4=CC(=O)C=C(C)C43C)C12` (centres undefined), the melting point fell in the range of 203 to 204 °C.

The molecule `N[C@H]1C=C(C(=O)O)OC1` displayed a melting point of 193 to 195 °C.

`Clc1ncn(CCOc2ccc(Oc3ccccc3)cc2)c1Cl` registered a melting point of 89 to 91 °C.

Molecule `CSc1cncc(Oc2ccc(Cl)c(Cl)c2)c1` showed a melting point of 55 °C.

Take `Cn1c(=O)oc2cc(CCBr)ccc21`: the melting point lay in the range of 104 to 106 °C.

`CCCNC(=O)Nc1ccc2c(c1)NC(=O)C2(C)C`: the melting point was in the range of 223 to 225 °C.

In turn, `COc1cc(Oc2ccc(C(=O)N(C3CCCCC3)C3CCCC3)cc2C)cc(OC)c1OC` came in with a melting point of 181 to 182 °C.

`CC1(C)CC(=O)c2c(-c3ccccc3)sc(C#N)c2C1` came in with a melting point of 100 to 103 °C.

The molecule `CN(C)c1ccc(C2(c3ccc(N(C)C)cc3)Oc3ccccc3-c3[nH]c4ccccc4c32)cc1` showed a melting point of 145 °C.

Turning to `CCC12CCC3C4CCC(=O)C=C4CCC3C1CCC2(C)O` (centres undefined), the melting point was 128 to 129 °C.

Molecule `N#CC(c1ccccc1)c1ccc([N+](=O)[O-])cc1C(F)(F)F` (centres undefined) returned a melting point of 70.4 °C.

In turn, `CN(C)C1CN(c2cc3nc4c(cc3cc2F)c(=O)c(C(=O)O)cn4C2CC2)C1` yielded a melting point of 264 °C.

Consider `CC(Cc1ccc(C2OC(N)=NC2=O)cc1)NCC(O)c1cccc(C(F)(F)F)c1` (centres undefined), for which the melting point lay in the range of 152 to 164 °C.

Turning to `CCOC(=O)COc1cc(-n2c(=O)cc(C(F)(F)F)n(C)c2=O)c(F)cc1Cl`, the melting point lay in the range of 98 to 101 °C.

Take `Nc1ncccc1-c1nc2ccc(-c3cccnc3)nc2n1-c1ccc(CC(=O)Nc2ccccc2)cc1`: the melting point was 162 to 164 °C.

For `CCCOc1cc(-c2c(C(=O)OCC)c(CCl)nc3cc(OC)c(OC)cc23)ccc1OC`, the melting point is 126 to 128 °C.

As for `CC(Oc1ccc(N)c([N+](=O)[O-])c1)c1cc(F)ccc1Cl` (centres undefined), the melting point was found to be 110 °C.

The molecule `COc1ccc(-c2ocnc2-c2cc(OC)c(F)c(OC)c2)cc1N` had a melting point of 140 to 142 °C.

Take `CNC(=O)Cc1c(C)n(-c2ccnc3cc(Cl)ccc23)c2ccc(OC)cc12`: the melting point lay in the range of 168 to 169 °C.

Regarding `Cn1c(Oc2cccc(N=C=S)c2)nc2ccccc21`, the melting point was 121 to 124 °C.

As for `COc1ccc(-c2cc(-c3ccc(O)c(F)c3)nc3c(Cl)cc(O)cc23)cc1`, the melting point was 140 to 142 °C.

The molecule `c1cc2c3c(nnc4c3c1OCC4)CCO2` displayed a melting point of 249 °C.

The molecule `C[C@H]1N=C(c2ccccc2F)c2cc(N)ccc2N(C)C1=O` came in with a melting point of 224 to 226 °C.

As to `CS(=O)(=O)N1CCN(c2ccc(C(=O)CCc3ccc(N)cc3)cc2)CC1`, the melting point is 166 to 170 °C.

`Cc1cccc(C(=O)NCc2cccc3c2C(=O)N(C2CCC(=O)NC2=O)C3=O)c1` (centres undefined) came in with a melting point of 218 to 220 °C.

On to `CSc1ccccc1-c1ccc(C(=O)N2Cc3ccc(C(=O)NCc4cccnc4)n3Cc3ccccc32)cc1`, for which the melting point fell in the range of 172 to 175 °C.

Take `OC(c1ccc(Br)cc1)(c1ccc(Br)cc1)c1ncc[nH]1`: the melting point lay in the range of 192 to 194 °C.

`CSc1nc2ccnn2c(NCc2ccco2)c1C#N` yielded a melting point of 110 °C.

The molecule `CCCCCCCCCCCCCCCCCC(CCCCCCCCCCCCCCCCC)=NO` registered a melting point of 66 to 67 °C.

`CC(C)(C)OC(=O)N1CCC(Nc2cccc(NC(=O)c3ccc(F)cc3)n2)CC1`: the melting point was 82.7 °C.

`Nc1c(CC(=O)N2CCC(O)CC2)cccc1Oc1ccccc1F` registered a melting point of 160 to 161 °C.

For `CCCCC(CC)C(=O)NC(=S)Nc1nc(-c2ccc3c(c2)CCCC3)cs1` (centres undefined), the melting point was in the range of 178 to 179 °C.

Turning to `CC(CCCC(C)(C)O)C1CCC2C3C=CC4=CC(=O)C5OC5C4(C)C3CCC12C` (centres undefined), the melting point was 162 to 163 °C.

In turn, `CCCCCCC(C(=O)O)n1ccc2cc(-c3cccc(OC)c3C(=O)O)ccc21` (centres undefined) showed a melting point of 80 to 90 °C.

The molecule `CC(=O)c1ccc(OCCCBr)c(C)c1` had a melting point of 59 to 61 °C.

For the molecule `CCOCc1nc2c(N)nc3cc(-c4cccnc4)ccc3c2n1CCNC(=O)C(C)C`, the melting point was 213 to 215 °C.

Molecule `CCC1(C)OC(c2ccc(S(N)(=O)=O)cc2)=C(c2ccco2)C1=O` (centres undefined) yielded a melting point of 154 to 155 °C.

`N#Cc1cnc2c(sc3ccccc32)c1Nc1ccc(Cl)cc1Cl`: the melting point lay within 260 to 262 °C.

`Cc1cc2c(cc1C=O)C(C)(C)CCC2(C)C` came in with a melting point of 82.4 to 84.1 °C.

In turn, `Cc1cn(N)c(=O)n1C` came in with a melting point of 115 to 119 °C.

Turning to `CC(n1cnc2cc(-c3ccc(F)cc3)sc2c1=O)C(O)(Cn1cncn1)c1ccc(F)cc1F` (centres undefined), the melting point was 118 to 127 °C.

Molecule `COc1cc2cc(C(=O)O)[nH]c2c2c1OCCC2=O` displayed a melting point of 312 °C.

`O=S(=O)(CCO)c1cc2c(Nc3cccc(Br)c3)ncnc2cn1` came in with a melting point of 208 to 209 °C.

In turn, `CCSC1(c2cc(F)cc(OCc3ccc4c(ccc(=O)n4C)c3)c2)CCOCC1` registered a melting point of 68 to 72 °C.

The molecule `CCCCc1nc2cccc(C(=O)OC)c2n1Cc1ccc(-c2ccccc2CO)cc1` registered a melting point of 126 to 127 °C.

`OC(c1ccccc1)(c1ccc(Cl)cc1)c1ncc[nH]1` (centres undefined) returned a melting point of 163 to 165 °C.

Turning to `CCCc1c(OCC(O)COc2ccc(C(=O)O)cc2Br)ccc(C(C)=O)c1O` (centres undefined), the melting point fell in the range of 93 to 95 °C.

As for `COc1cc2ncc(C#N)c(Nc3ccc(F)c(Cl)c3)c2cc1NC(=O)C=CCN(C)CCO`, the melting point lay within 210 to 214 °C.

Regarding `COc1c([N+](=O)[O-])cc(Br)c2c1C(=O)CC2`, the melting point is 138 to 139 °C.

With `Oc1cc2c(cc1CCc1cccs1)OCC2`, the melting point fell in the range of 79 to 85 °C.

As to `COc1ccc(C(=C/C=C/C(=O)NCCCCCc2ccccn2)c2ccc(OC)cc2)cc1`, the melting point fell in the range of 99 to 100 °C.

Consider `O=C(O)c1cc(=O)cc(C=Cc2ccccc2)o1`, for which the melting point was 227 to 228 °C.

`CC(=O)c1c(-c2ccc(Cl)cc2)c(-c2ccc(Cl)cc2)nn(CCC2OC(CO)C(O)C(O)C2O)c1=O` (centres undefined) came in with a melting point of 96 to 122 °C.

With `C=C(C)COc1ccc(NC(C)=O)c(C)c1C`, the melting point lay in the range of 154 to 156 °C.

In turn, `CC(C)S(=O)(=O)NC(=O)Nc1ccc(Cl)c(C(F)(F)F)c1` registered a melting point of 135 to 140 °C.

As for `C(=C1COc2ccc3c4c(nnc1c24)C(=Cc1ccccc1)CO3)c1ccccc1`, the melting point stood at 242 °C.
